# Results reported in US20070275911A1, “Targeted Drug-Formaldehyde Conjugates and Methods of Making and Using the Same” (priority 2003, published 2007).
# Values joined by “and” are separate entries in the source; they are usually repeats but may differ in a detail not shown here. Identical values can stand only once. Like-named read-outs stand apart in the source and are kept apart here.
# Legend:
# [1] = tested on: MDA-MB-231 cells; experiment: Uptake and release by flow cytometry; assay type: cell-based, human
# Description: Additionally, uptake and release data were obtained for DOX, DOXSF, and DOX-TEG-TAM in estrogen receptor-negative MDA-MB-435 and MDA-MB-231 cells. In both cell lines DOX-TEG-TAM was also taken up to a much greater extent than DOX and DOXSF. In MDA-MB-435 cells DOX-TEG-TAM was taken up 3-fold and 5-fold more than DOXSF and DOX, respectively. In MDA-MB-23 1 cells DOX-TEG-TAM was taken up 2-fold and 6-fold more than DOXSF and DOX, respectively.
# (§1) Uptake and release of DOX, DOXSF, and DOX-TEG-TAM: The uptake and release of DOX-TEG-TAM in breast cancer cells relative to DOX and untargeted DOXSF was performed as described with modifications. Breast cancer cells in log phase growth were dissociated with trypsin-EDTA, counted, resuspended in media at 1.5×10^5 cells/mL, and plated into six well plates (450,000 cells/well) and allowed to adhere overnight. The cells were treated with 0.5 μM DOX, DOXSF, or DOX-TEG-TAM for various amounts of time (20 min, 40 min, and 60 min). Drug treatment was accomplished by addition of 30 μL of 100× drug solution (50 μM) to 3 mL of media which was mixed and immediately added to the cells. For each time point, the media was removed, cells were trypsinized, and trypsinization was quenched with 3 mL phenol red-free RPMI 1640 media (no serum) at 4° C. Cells were pelleted by centrifugation at 300 g for 5 min at 10° C. The supernatant was decanted and the cells were re-suspended in 1 mL serum- and phenol red-free RPMI 1640 media and placed on ice.
# For drug retention samples, the cells were treated for 1 h with 0.5 μM DOX, DOXSF, or DOX-TEG-TAM. Following drug treatment, the media was removed and replaced with 3 mL fresh, 37° C., full (containing serum and phenol red indicator) cell media and the cells were incubated for various times (0.5 h, 1 h, 3 h, and 6 h). Following the allotted release times, the cells were prepared as described above. Drug treatment was performed such that all cell samples would be prepared within 2 h.
# (§2) The extent of drug uptake and retention was measured by flow cytometry. Cells were analyzed with excitation at 488 nm (15 mW Ar ion laser), with emission monitored between 570 and 600 nm. Instrument settings were optimized for each cell line and held constant for all experiments; 10,000 cells were analyzed for anthracycline fluorescence. The data are presented as the mean fluorescence for each condition with the background, drug-free cell fluorescence subtracted.
# [2] = tested on: Rtx-6 cells; experiment: Uptake and estradiol competition by flow cytometry; assay type: cell-based
# Method: The uptake and release in Rtx-6 cells were also investigated. Rtx-6 cells were treated with DOX, DOXSF, or DOX-TEG-TAM as described above to determine both the uptake and the release of drug following a 1 h treatment. DOX-TEG-TAM was taken up to a greater extent than DOX (>3-fold) and DOXSF (>2-fold). The enhanced uptake relative to DOX and DOXSF could be attributed to the presence of ER and the lipophilicity of DOX-TEG-TAM. The uptake of DOX-TEG-TAM in Rtx-6 cells is perhaps best compared to the uptake in the parent MCF-7 cell line. DOX-TEG-TAM was taken up to a greater extent in MCF-7 cells (25 RFU) relative to Rtx-6 cells (14 RFU). One possible explanation for this difference is the presence of both AEBS and ER in MCF-7 cells versus only ER in Rtx-6 cells. […] No further inhibition occurs at higher concentrations, possibly because of non-specific binding of DOX-TEG-TAM at hydrophobic sites in Rtx-6 cells.
# as §1, §2
# The cell samples were prepared and analyzed by flow cytometry as described above.
# [3] = target: T1, AEBS (Homo sapiens, UniProt Q15125+Q9UBM7); experiment: AEBS binding, competition with 3H-tamoxifen in MCF-7 cell lysate; conditions: 50 nM competitor
# T1 construct: MCF-7 cells were utilized as the AEBS source; endogenous in cells; host or cells: MCF-7 cells
# [4] = target: T2, ανβ3 integrin present on viable MDA-MB-435 cells (Homo sapiens, UniProt P05106+P06756); experiment: Vitronectin cell adhesion (competition) assay; assay type: cell-based; conditions: MDA-MB-435 cell binding to vitronectin, 500 μM Mn2+; read-out: IC50 for inhibition of cell binding
# T2 construct: endogenous in cells
# Description: The data are presented as the mean fluorescence for each condition with the background, drug-free cell fluorescence subtracted.
# [5] = tested on: MDA-MB-435 cells; experiment: Growth inhibition assay (Example 6); assay type: cell-based, human; conditions: read-out: IC50 for inhibition of cell growth (nM), treatment time
# Method: […] Cells were quantified via measuring crystal violet staining or cellular metabolism of MTT. For every experiment, each condition was performed in hexuplicate; experiments were performed at least twice.
# Cancer cell growth inhibition: acyclic-RGD-4C-DOXSF and cyclic-(N-Me-VRGDf-NH)-DOXSF were also assayed for their ability to inhibit growth of MDA-MB-435 cells relative to DOX and DOXSF. Cells treated in cell culture plates and non-treated (-control) cells were allowed to grow to near confluency, and then quantified via measuring crystal violet staining or cellular metabolism of MTT. […] Earlier control experiments established that the miniscule amounts of formaldehyde that would be released even from complete hydrolysis of the conjugate would contribute nothing to the observed growth inhibition. Conjugation of cytotoxic drugs to triggers and targeting groups often causes a drop in cytotoxicity.
# [6] = tested on: PC-3 prostate cancer cells; experiment: Cytotoxicity, crystal violet colony assay (Example 1); assay type: cell-based; conditions: for IC50: PC-3, 4 h treatment, read-out: IC50 cancer cell growth inhibition
# [7] = cell line not stated; cited from earlier work
# [8] = tested on: PC3/AR and PC3/neo cells; conditions: 3 h treatment / over time
# Method: The fluorescence of doxorubicin can be monitored in order to determine the rate of uptake and intracellular distribution of the anthraquinone fluorophore.
# This cell suspension was dispensed in 2 mL aliquots into 6-well tissue culture plates. Plates were then incubated for 36 h at 37° C. in a humidified atmosphere of 5% CO2 and 95% air. The medium was replaced with 1 mL of phenol red-free RPMI 1640 growth medium supplemented with 10% dextran-coated charcoal stripped FBS prior to addition of the test compound. The appropriate compound was dissolved in DMSO and the concentration was adjusted to 50-200 μM by measuring the solution absorbance at 480 nm. Addition of 10 μL of the appropriate doxorubicin or prodrug solution was followed by incubation at 37° C. as indicated. The drug solution in individual wells was removed at the appropriate time and the cells were washed with 1 mL of the phenol red-free growth medium. The washed cells were then supplemented with 1 mL of phenol-red free growth medium for imaging.
Structure (SMILES),fold uptake more than DOX ([1]; MDA-MB-231),fold uptake more than DOXSF ([1]; MDA-MB-231),"uptake relative to MDA-MB-435 cells ([1]; MDA-MB-231, 1 h, 500 nM)","fluorophore retention vs DOXSF or DOX ([1]; MDA-MB-231, after 1 h treatment with 500 nM)",fold uptake greater than DOX ([2]; Rtx-6),fold uptake greater than DOXSF ([2]; Rtx-6),"inhibition of uptake by estradiol ([2]; Rtx-6, 0.5 μM drug, 20 nM estradiol)","drug uptake (DOX fluorophore) ([2]; Rtx-6, 1 h treatment)",AEBS binding affinity relative to the targeting group ([3]; 0.05 nM 3H-tamoxifen),AEBS binding affinity relative to the targeting group ([3]; 0.5 nM 3H-tamoxifen),AEBS binding affinity relative to the targeting group ([3]; 5 nM 3H-tamoxifen),IC50 [4],"IC50 ([5]; Homo sapiens, MDA-MB-435, 20 min, 20 min treatment)","IC50 ([5]; Homo sapiens, MDA-MB-435, 1 h treatment)","IC50 ([5]; Homo sapiens, MDA-MB-435, 4 h treatment)",IC50 [6],IC50 [7],intracellular distribution of fluorescence over time [8],IC50 ([5]; 4 h treatment),"DOX/doxsaliform ([6]; PC-3, fold increase in cytotoxicity, 4 h drug treatment)"
"CC/C(=C(/c1ccc(O)cc1)c1ccc(OCCN(C)CCOCCOCCO/N=C/c2ccc(O)c(C(=O)NCN[C@H]3C[C@H](O[C@H]4C[C@](O)(C(=O)CO)Cc5c(O)c6c(c(O)c54)C(=O)c4c(OC)cccc4C6=O)O[C@@H](C)[C@H]3O)c2)cc1)c1ccccc1 [11c, E/Z-N-(2-Hydroxy-5-{[2-(2-{2-[(2-{4-[1-(4-hydroxy-phenyl)-2-phenyl-but-1-enyl]-phenoxy}-ethyl)-methyl-amino]-ethoxy}-ethoxy)-ethoxyimino]-methyl}-benzamide)-doxorubicin]",6 fold,2 fold,about 25%,retained to a greater extent,> 3 fold,> 2 fold,70%,14 RFU,70%,72%,48%,–,–,–,–,–,–,–,–,–
"COc1cccc2c1C(=O)c1c(O)c3c(c(O)c1C2=O)C[C@@](O)(C(=O)CO)C[C@@H]3O[C@H]1C[C@H](N)[C@H](O)[C@H](C)O1 [doxorubicin, reference compound]",–,–,–,–,–,–,–,–,–,–,–,> 10000 nM,800 nM,300 nM,120 nM,300 nM,–,–,–,–
"COc1cccc2c1C(=O)c1c(O)c3c(c(O)c1C2=O)C[C@@](O)(C(=O)CO)C[C@@H]3O[C@H]1C[C@H](NCNC(=O)c2ccccc2O)[C@H](O)[C@H](C)O1 [doxsaliform, N-(2-Hydroxybenzamido-methyl)-doxorubicin]",–,–,–,–,–,–,–,–,–,–,–,> 10000 nM,–,–,–,80 nM,60 nM and 50 nM,exclusive nuclear accumulation of fluorescence,50 nM,4
